# Laboratory results from article PMC8398451, “Molecular Engineering of Curcumin, an Active Constituent of Curcuma longa L. (Turmeric) of the Family Zingiberaceae with Improved Antiproliferative Activity” (Plants, 2021).
# Read-outs that look alike come from different tables or passages of the source.
# How the values were obtained:
# [1] = tested on: A498; assay: NCI antiproliferative SRB assay, Renal Cancer panel; format: cell-based, Human
# [2] = tested on: OVCAR-3; assay: NCI antiproliferative SRB assay, Ovarian Cancer panel; format: cell-based, Human
# [3] = tested on: 60 NCI cancer cell lines; assay: NCI antiproliferative assay, summary over all lines; format: cell-based
# [4] = tested on: OVCAR-8; assay: NCI antiproliferative SRB assay, Ovarian Cancer panel; format: cell-based, Human
# [5] = tested on: SF-295; assay: NCI antiproliferative SRB assay, CNS Cancer panel; format: cell-based, Human
# [6] = tested on: NCI-H460; assay: NCI antiproliferative SRB assay, Non-Small Cell Lung Cancer panel; format: cell-based, Human
# [7] = tested on: NCI-H226; assay: as above; format: cell-based, Human
# [8] = tested on: NCI-H522; assay: as above; format: cell-based, Human
# [9] = target: T1, EGFR (Homo sapiens, UniProt P00533); assay: Spectrophotometric assay for EGFR tyrosine kinase inhibition in A431 cells; format: cell-based; settings: absorbance at 540 nm
# T1 construct: tested for anti-EGFR activity in human A431 cells, which express high levels of EGFR protein; endogenous in cells; host or cells: human A431 cells
# [10] = tested on: SNB-75; assay: NCI antiproliferative SRB assay, CNS Cancer panel; format: cell-based, Human
# [11] = tested on: HOP-62; assay: NCI antiproliferative SRB assay, Non-Small Cell Lung Cancer panel; format: cell-based, Human
# [12] = tested on: SW-620; assay: NCI antiproliferative SRB assay, Colon Cancer panel; format: cell-based, Human
# [13] = tested on: SN 12C; assay: NCI antiproliferative SRB assay, Renal Cancer panel; format: cell-based, Human
# [14] = tested on: HOP-92; assay: NCI antiproliferative SRB assay, Non-Small Cell Lung Cancer panel; format: cell-based
# [15] = tested on: Leukemia cell line panel; assay: NCI antiproliferative assay, panel summary; format: cell-based, Human; settings: for GI50: Homo sapiens
# [16] = tested on: EKVX; assay: NCI antiproliferative SRB assay, Non-Small Cell Lung Cancer panel; format: cell-based, Human
# [17] = tested on: Prostate Cancer cell line panel; assay: NCI antiproliferative assay, panel summary; format: cell-based, Human
# [18] = tested on: 786–0; assay: NCI antiproliferative SRB assay, Renal Cancer panel; format: cell-based, Human
# [19] = tested on: HL-60(TB); assay: cells; format: cell-based
# [20] = tested on: ACHN; assay: NCI antiproliferative SRB assay, Renal Cancer panel; format: cell-based, Human
# [21] = tested on: DU-145; assay: NCI antiproliferative SRB assay, Prostate Cancer panel; format: cell-based, Human
# [22] = tested on: HCC-2998; assay: NCI antiproliferative SRB assay, Colon Cancer panel; format: cell-based, Human
# [23] = tested on: TK-10; assay: NCI antiproliferative SRB assay, Renal Cancer panel; format: cell-based, Human
# [24] = tested on: HCT-15; assay: NCI antiproliferative SRB assay, Colon Cancer panel; format: cell-based, Human
# [25] = tested on: Melanoma cell line panel; assay: NCI antiproliferative assay, panel summary; format: cell-based, Human
# [26] = Homo sapiens, 5-dose 0.01-100 µM
# [27] = Homo sapiens, 5-dose 0.01-100 µM, read-out: LC50 (the source's name)
# [28] = mean over cell lines, one dose 10 µM
# [29] = Homo sapiens, 5-dose assay, read-out: Sub Panel MID b (mean GI50 of panel)
# T1 sequence (P00533 25-1210): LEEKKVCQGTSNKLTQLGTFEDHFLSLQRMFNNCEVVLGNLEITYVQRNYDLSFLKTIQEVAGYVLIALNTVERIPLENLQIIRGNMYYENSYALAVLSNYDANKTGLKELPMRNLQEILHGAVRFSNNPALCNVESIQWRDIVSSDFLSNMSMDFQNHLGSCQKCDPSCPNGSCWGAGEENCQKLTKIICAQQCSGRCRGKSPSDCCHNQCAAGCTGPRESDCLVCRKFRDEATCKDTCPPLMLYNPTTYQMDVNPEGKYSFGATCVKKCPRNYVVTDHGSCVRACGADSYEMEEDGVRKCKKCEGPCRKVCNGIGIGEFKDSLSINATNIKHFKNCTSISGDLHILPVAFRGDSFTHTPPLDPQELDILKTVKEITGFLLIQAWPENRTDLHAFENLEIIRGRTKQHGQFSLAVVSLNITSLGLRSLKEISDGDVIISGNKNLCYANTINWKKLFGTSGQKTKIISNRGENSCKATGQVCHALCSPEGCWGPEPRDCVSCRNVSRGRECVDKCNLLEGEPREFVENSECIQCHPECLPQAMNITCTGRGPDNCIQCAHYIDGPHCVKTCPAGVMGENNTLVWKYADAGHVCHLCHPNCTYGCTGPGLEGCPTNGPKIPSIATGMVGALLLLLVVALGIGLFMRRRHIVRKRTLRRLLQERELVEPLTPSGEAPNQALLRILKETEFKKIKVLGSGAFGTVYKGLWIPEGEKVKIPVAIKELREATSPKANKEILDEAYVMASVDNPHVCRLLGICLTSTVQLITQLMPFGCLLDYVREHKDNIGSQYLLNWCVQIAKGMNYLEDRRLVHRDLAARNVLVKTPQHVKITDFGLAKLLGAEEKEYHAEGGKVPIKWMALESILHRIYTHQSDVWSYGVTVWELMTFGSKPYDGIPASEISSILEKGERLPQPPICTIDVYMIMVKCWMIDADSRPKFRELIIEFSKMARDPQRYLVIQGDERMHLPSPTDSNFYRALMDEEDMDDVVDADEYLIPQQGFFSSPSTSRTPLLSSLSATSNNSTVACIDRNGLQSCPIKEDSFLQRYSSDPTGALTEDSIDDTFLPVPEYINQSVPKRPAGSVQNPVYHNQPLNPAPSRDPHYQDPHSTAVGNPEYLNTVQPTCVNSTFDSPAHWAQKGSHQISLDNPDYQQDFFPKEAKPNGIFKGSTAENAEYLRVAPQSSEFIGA
smiles,measurement,setting,value
COc1ccc(NC(=O)n2nc(/C=C/c3ccc(O)c(OC)c3)cc2/C=C/c2ccc(O)c(OC)c2)cc1 [3b],TGI,[1]; 5-dose 0.01-100 µM,56.4 µM
same,GI50,[1]; [26],17.2 µM
same,CC50,[1]; [27],> 100 µM
same,%GI,[1]; one dose 10 µM,17.53%
same,GP (growth percent),[1]; one dose 10 µM,82.47
same,TGI,[2]; 5-dose 0.01-100 µM,8.40 µM
same,GI50,[2]; [26],2.98 µM
same,CC50,[2]; [27],> 100 µM
same,%GI,[2]; one dose 10 µM,86.38%
same,GP (growth percent),[2]; one dose 10 µM,13.62
same,GI50,"[3]; Homo sapiens, read-out: GI50 values, range over cell lines",1.25 to 18.8 µM
same,CC50,"[3]; Homo sapiens, 5-dose assay, read-out: LC50 over cell lines",> 100 µM
same,GI50,"[3]; Homo sapiens, 5-dose assay, read-out: MID a (mean GI50 of 60 NCI cancer cell lines)",4.89 µM
same,Mean % GI,[3]; [28],66.46%
same,Mean GP,[3]; [28],33.54
same,TGI,[4]; 5-dose 0.01-100 µM,59.9 µM
same,GI50,[4]; [26],5.32 µM
same,CC50,[4]; [27],> 100 µM
same,%GI,[4]; one dose 10 µM,67.21%
same,GP (growth percent),[4]; one dose 10 µM,32.79
same,TGI,[5]; 5-dose 0.01-100 µM,53.2 µM
same,GI50,[5]; [26],6.25 µM
same,CC50,[5]; [27],> 100 µM
same,%GI,[5]; one dose 10 µM,48.38%
same,GP (growth percent),[5]; one dose 10 µM,51.62
same,TGI,[6]; 5-dose 0.01-100 µM,31.4 µM
same,GI50,[6]; [26],4.24 µM
same,CC50,[6]; [27],> 100 µM
same,%GI,[6]; one dose 10 µM,85.78%
same,GP (growth percent),[6]; one dose 10 µM,14.22
same,TGI,[7]; 5-dose 0.01-100 µM,78.6 µM
same,GI50,[7]; [26],10.7 µM
same,CC50,[7]; [27],> 100 µM
same,%GI,[7]; one dose 10 µM,12.85%
same,GP (growth percent),[7]; one dose 10 µM,87.15
same,TGI,[8]; 5-dose 0.01-100 µM,12.7 µM
same,GI50,[8]; [26],1.76 µM
same,CC50,[8]; [27],> 100 µM
same,%GI,[8]; one dose 10 µM,113.52%
same,GP (growth percent),[8]; one dose 10 µM,−13.52
same,IC50,[9],3.89 µM
same,TGI,[10]; 5-dose 0.01-100 µM,16.3 µM
same,GI50,[10]; [26],2.35 µM
same,CC50,[10]; [27],> 100 µM
same,%GI,[10]; one dose 10 µM,67.39%
same,GP (growth percent),[10]; one dose 10 µM,32.61
same,TGI,[11]; 5-dose 0.01-100 µM,42.8 µM
same,GI50,[11]; [26],3.65 µM
same,CC50,[11]; [27],> 100 µM
same,%GI,[11]; one dose 10 µM,67.25%
same,GP (growth percent),[11]; one dose 10 µM,32.75
same,TGI,[12]; 5-dose 0.01-100 µM,61.6 µM
same,GI50,[12]; [26],5.51 µM
same,CC50,[12]; [27],> 100 µM
same,%GI,[12]; one dose 10 µM,72.90%
same,GP (growth percent),[12]; one dose 10 µM,27.10
same,TGI,[13]; 5-dose 0.01-100 µM,33.7 µM
same,GI50,"[13]; Homo sapiens, SN12C, 5-dose 0.01-100 µM",3.05 µM
same,CC50,"[13]; Homo sapiens, SN12C, 5-dose 0.01-100 µM, read-out: LC50 (the source's name)",> 100 µM
same,%GI,[13]; one dose 10 µM,68.55%
same,GP (growth percent),[13]; one dose 10 µM,31.45
same,TGI,[14]; 5-dose 0.01-100 µM,>100 µM
same,GI50,"[14]; Homo sapiens, 5-dose 0.01-100 µM, read-out: GI50",7.77 µM
same,CC50,[14]; [27],> 100 µM
same,%GI,[14]; one dose 10 µM,10.93%
same,GP (growth percent),[14]; one dose 10 µM,89.07
same,Mean % GI,[15]; 10 µM,88.02%
same,Selectivity Ratio (MID a:MID b),[15]; 5-dose assay,1.89
same,GI50,"[15]; 5-dose assay, read-out: GI50 values, range over the leukemia panel",1.52 to 3.38 µM
same,GI50,"[15]; 5-dose assay, read-out: Sub Panel MID b (mean GI50 of panel)",2.59 µM
same,TGI,[16]; 5-dose 0.01-100 µM,83.7 µM
same,GI50,[16]; [26],6.62 µM
same,CC50,[16]; [27],> 100 µM
same,%GI,[16]; one dose 10 µM,47.61%
same,GP (growth percent),[16]; one dose 10 µM,52.39
same,Mean % GI,[17]; 10 µM,72.17%
same,Selectivity Ratio (MID a:MID b),[17]; 5-dose assay,1.07
same,GI50,[17]; [29],4.55 µM
same,TGI,[18]; 5-dose 0.01-100 µM,24.3 µM
same,GI50,[18]; [26],4 µM
same,CC50,[18]; [27],> 100 µM
same,%GI,[18]; one dose 10 µM,67.92%
same,GP (growth percent),[18]; one dose 10 µM,32.08
same,TGI,[19]; 5-dose 0.01-100 µM,6.69 µM
same,GI50,[19]; [26],2.55 µM
same,CC50,[19]; [27],> 100 µM
same,%GI,[19]; one dose 10 µM,94.68%
same,GP (growth percent),[19]; one dose 10 µM,5.32
same,TGI,[20]; 5-dose 0.01-100 µM,>100 µM
same,GI50,[20]; [26],4.18 µM
same,CC50,[20]; [27],> 100 µM
same,%GI,[20]; one dose 10 µM,77.93%
same,GP (growth percent),[20]; one dose 10 µM,26.03
same,TGI,[21]; 5-dose 0.01-100 µM,24.6 µM
same,GI50,[21]; [26],3.99 µM
same,CC50,[21]; [27],> 100 µM
same,%GI,[21]; one dose 10 µM,72.77%
same,GP (growth percent),[21]; one dose 10 µM,27.23
same,TGI,[22]; 5-dose 0.01-100 µM,>100 µM
same,GI50,[22]; [26],5.78 µM
same,CC50,[22]; [27],> 100 µM
same,%GI,[22]; one dose 10 µM,25.09%
same,GP (growth percent),[22]; one dose 10 µM,74.91
same,TGI,[23]; 5-dose 0.01-100 µM,95.3 µM
same,GI50,[23]; [26],10.2 µM
same,CC50,[23]; [27],> 100 µM
same,%GI,[23]; one dose 10 µM,36.16%
same,GP (growth percent),[23]; one dose 10 µM,63.84
same,TGI,[24]; 5-dose 0.01-100 µM,>100 µM
same,GI50,[24]; [26],2.98 µM
same,CC50,[24]; [27],> 100 µM
same,GP (growth percent),[24]; one dose 10 µM,13.17
same,Mean % GI,[25]; 10 µM,76.24%
same,Selectivity Ratio (MID a:MID b),[25]; 5-dose assay,1.06
same,GI50,[25]; [29],4.59 µM
